According to patent US20240300886A1, “ARYLCYCLOHEXYLAMINE DERIVATIVES AND THEIR USE IN THE TREATMENT OF PSYCHIATRIC DISORDERS” (GILGAMESH PHARMACEUTICALS, INC., priority 2021, published 2024):
Read-outs that look alike come from different tables or passages of the source.

Tests used:
[1] = Stability in liver microsomes (Example 21), cynomolgus monkey; format: in vitro ADME; conditions: male, pH 7.4, 0.5 mg/mL protein
Description: (§1) General Procedure. Briefly, test compounds (final concentration 1 μM) were incubated in duplicate with liver microsomes from male animals of the indicated species (final protein concentration 0.5 mg/mL) in 50 mM sodium phosphate buffer (pH 7.4) with or without NADPH (1 mM). Total incubation volume was 500 μL. At 0, 5, 15, 30, and 60 min, aliquots of 50 μL were withdrawn, quenched with acetonitrile (150 μL), and analyzed for parent compound remaining using a fit-for-purpose LC-MS/MS method. Intrinsic clearance and half-life were calculated. Clearance values below zero were rounded to zero.

[2] = Stability in liver microsomes (Example 21), SD rat; format: in vitro ADME; conditions: male, pH 7.4, 0.5 mg/mL protein
Description: as §1

[3] = Comparative oral pharmacokinetics of 2R, 2S and 2-F-DCK in mice; format: in vivo, C57BL/6 mice; conditions: 10 mg/kg po; for half-life: read-out: t1/2 (po)
Description: Animals. Male C57BL/6 mice were used in these studies. Aminals were randomly assigned to treatment groups and were fasted for 4 h before dosing.
Drugs. Test compounds were dissolved in a vehicle consisting of normal saline, They were then administered orally (po) at a dose of 10 mg/kg (calculated based on freebase) and at a volume of 10 mL/kg body weight.
Sample Collection and Bioanalysis. Blood samples (approximately 60 μL) were collected under light isoflurane anesthesia (Surgivet®) from the retro orbital plexus at 0.08, 0.25, 0.5, 1, 2, 4, 8, and 24 h (4 animals per time point). Immediately after blood collection, plasma was harvested by centrifugation at 4,000 rpm for 10 min at 4° C. and samples were stored at −70±10° C. until bioanalysis. Following blood collection, animals were immediately sacrificed, the abdominal vena-cava was cut open, and the whole body was perfused from the heart using 10 mL of normal saline, and brain samples were collected from all animals. After isolation, brain samples were rinsed three times in ice-cold normal saline (for 5-10 seconds/rinse using ˜5-10 mL normal saline in disposable petri dish for each rinse) and dried on blotting paper. Brain samples were homogenized using ice-cold phosphate-buffered saline (pH 7.4). Total homogenate volume was three times the tissue weight. All homogenates were stored at −70±10° C. until bioanalysis. For bioanalysis, 25 μL aliquots of plasma/brain study samples or spiked plasma/brain calibration standards were added to individual pre-labeled micro-centrifuge tubes followed by 100 μL of an internal standard solution (glipizide, 500 ng/mL in acetonitrile) except for blanks, where 100 μL of acetonitrile was added. Samples were vortexed for 5 minutes and then centrifuged for 10 minutes at 4,000 rpm at 4° C. Following centrifugation, 100 μL of each clear supernatant was transferred to a 96 well plate and analyzed with a fit-for-purpose LC-MS/MS method, with authentic samples of each analyte used for calibration and identification.
Data Analysis. Pharmacokinetic parameters were estimated using the non-compartmental analysis tool of Phoenix® WinNonlin software (Ver 8.0).

[4] = Stability in liver microsomes (Example 21), CD-1 mouse; format: in vitro ADME; conditions: male, pH 7.4, CD-1 Mouse liver microsomes, 0.5 mg/mL protein
Description: as §1

[5] = Stability in liver microsomes (Example 21), beagle dog; format: in vitro ADME; conditions: male, pH 7.4, 0.5 mg/mL protein
Description: as §1

[6] = target: serotonin transporter (SERT) (Homo sapiens (Human), UniProt P31645); assay: SERT competition radioligand binding ([3H]imipramine); conditions: Human recombinant (CHO cells), 2.0 nM [3H]imipramine
Description: Disclosed compounds were tested for their binding affinity at the serotonin transporter (SERT) using a competition radioligand binding assay (Eurofins Cerep). Assay conditions are described in Table 16 below.

[7] = target: recombinant human NMDA receptor (GRIN1/GRIN2B) (Homo sapiens (Human), UniProt Q05586+Q13224); assay: Unblocking kinetics at the NMDA receptor in Xenopus laevis oocytes (two-electrode voltage clamp); format: cell-based; conditions: compounds applied at 3×IC50, -70 mV, n ≥ 5
Description: Compounds 2R, 2S, and 2-(2-fluorophenyl)-2-(methylamino)cyclohexan-1-one 2-F-DCK were tested for unblocking kinetics at the NMDA receptor in Xenopus laevis oocytes expressing recombinant human NMDA receptor (GRIN1/GRIN2B) (Table 22).
Experimental Procedure. Oocytes were harvested from adult Xenopus laevis and incubated in 96 well plates for two to four days prior to recordings. Plasmids containing cDNA encoding for human NMDA receptor subunits GRIN1 and GRIN2B were transcribed using the mMessage mMachine T7 transcription kit (Ambion, USA). The Roboocyte automated injection system was used for injection of cRNA coding for hNMDA receptor subunits at a concentration of 100 ng/μL per subunit. Oocytes were clamped to a holding potential of −70 mV and induced currents after compound application were sampled at 200 Hz at room temperature. Agonist induced currents were recorded with a two-electrode voltage clamp. To determine the unblocking kinetics, glutamate and glycine (3 and 10 μM, respectively) were applied to the oocytes and the current recorded for 90 s. Then, compounds were applied at 3×IC50 for 120 s and the currents recorded.

[8] = Stability in liver microsomes (Example 21), Gottingen minipig; format: in vitro ADME; conditions: male, pH 7.4, 0.5 mg/mL protein
Description: as §1

Sequence of recombinant human NMDA receptor (GRIN1/GRIN2B) (Q13224 whole entry, looked up, other chains not shown): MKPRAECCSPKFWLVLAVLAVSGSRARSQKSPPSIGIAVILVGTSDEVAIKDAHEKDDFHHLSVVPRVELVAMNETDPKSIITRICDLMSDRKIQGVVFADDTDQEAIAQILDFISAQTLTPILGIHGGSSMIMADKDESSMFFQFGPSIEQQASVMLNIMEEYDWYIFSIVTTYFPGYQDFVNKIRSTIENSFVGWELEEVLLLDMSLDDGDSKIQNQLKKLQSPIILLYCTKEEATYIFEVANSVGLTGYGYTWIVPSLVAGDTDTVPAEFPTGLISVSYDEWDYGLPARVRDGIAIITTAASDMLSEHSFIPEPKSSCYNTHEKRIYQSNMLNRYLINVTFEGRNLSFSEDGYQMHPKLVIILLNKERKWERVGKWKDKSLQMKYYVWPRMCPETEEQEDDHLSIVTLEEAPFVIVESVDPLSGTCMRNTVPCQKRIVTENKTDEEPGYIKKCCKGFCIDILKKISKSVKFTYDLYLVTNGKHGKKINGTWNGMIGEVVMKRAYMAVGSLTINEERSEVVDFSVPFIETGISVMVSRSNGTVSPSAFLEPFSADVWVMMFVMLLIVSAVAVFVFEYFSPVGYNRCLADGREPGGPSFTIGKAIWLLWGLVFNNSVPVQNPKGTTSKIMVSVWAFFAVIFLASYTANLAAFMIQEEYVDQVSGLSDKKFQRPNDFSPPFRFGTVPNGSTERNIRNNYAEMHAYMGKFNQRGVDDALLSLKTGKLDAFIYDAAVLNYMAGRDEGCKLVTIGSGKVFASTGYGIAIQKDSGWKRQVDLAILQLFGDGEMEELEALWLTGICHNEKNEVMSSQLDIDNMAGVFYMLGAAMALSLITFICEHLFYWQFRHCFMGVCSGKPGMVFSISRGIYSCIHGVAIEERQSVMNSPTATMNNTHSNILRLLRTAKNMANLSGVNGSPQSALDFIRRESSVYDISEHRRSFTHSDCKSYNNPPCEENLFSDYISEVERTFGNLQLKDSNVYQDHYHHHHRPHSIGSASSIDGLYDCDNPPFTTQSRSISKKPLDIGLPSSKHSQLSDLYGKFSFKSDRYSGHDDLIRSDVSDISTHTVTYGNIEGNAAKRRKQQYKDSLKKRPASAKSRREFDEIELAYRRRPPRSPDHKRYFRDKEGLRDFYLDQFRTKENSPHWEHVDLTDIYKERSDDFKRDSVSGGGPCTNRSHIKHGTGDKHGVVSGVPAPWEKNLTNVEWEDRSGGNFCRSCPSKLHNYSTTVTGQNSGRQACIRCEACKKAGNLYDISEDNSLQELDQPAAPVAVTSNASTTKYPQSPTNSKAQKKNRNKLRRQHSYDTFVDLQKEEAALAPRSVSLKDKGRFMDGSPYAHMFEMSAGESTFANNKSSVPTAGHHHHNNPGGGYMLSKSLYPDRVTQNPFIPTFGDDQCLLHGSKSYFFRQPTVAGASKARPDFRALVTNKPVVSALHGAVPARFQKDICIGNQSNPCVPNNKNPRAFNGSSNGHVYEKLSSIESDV

SMILES: CNC1(c2ccccc2F)CCCCC1=O (stereo not shown) [Compound 2-F-DCK, 2-(2-fluorophenyl)-2-(methylamino)cyclohexan-1-one, reference compound]
- microsomal CLint at 1 μM [1]: 212 µL/min/mg
- microsomal CLint at 1 μM [2]: 111 µL/min/mg
- Cmax ([3]; male, C57BL/6, mouse brain): 1670 ng/g
- half-life ([3]; male, C57BL/6, mouse brain): 41 min
- Cmax ([3]; male, C57BL/6, mouse plasma): 1960 ng/mL
- AUC(0-t) ([3]; male, C57BL/6, mouse plasma, read-out: AUC0-last (po) (converted)): 1150 ng·h/mL
- half-life ([3]; male, C57BL/6, mouse plasma): 69 min
- AUC0-last (po) ([3]; mouse brain): 59119 ng·min/g
- microsomal CLint at 1 μM [4]: 10.9 µL/min/mg
- microsomal CLint at 1 μM [5]: 30 µL/min/mg
- Ki [6]: 40 µM
- Unblocking T1/2 ± SEM [7]: 1.44 ± 0.21 min
- microsomal CLint at 1 μM [8]: 56.2 µL/min/mg
